IC50 data for nine molecules are collected here from BindingDB's records for patent US20240294509 (Euregen Biopharma Co., 2024).

In experiment [1] the target is Poly [ADP-ribose] polymerase 1 (Homo sapiens, UniProt P09874). The experiment is described as follows: Inhibition of Compounds on PARP1/7 Enzyme Activity.
Description: (§1) Fit the dose-response data with standard dilutions using Prism GraphPad software and calculate the concentration required to achieve 5000 inhibition of PARP1 or PARP7 enzyme activity (IC50).
Experiment [2] concerns the target T1, Protein mono-ADP-ribosyltransferase TIPARP (Homo sapiens, UniProt Q7Z3E1).
T1 sequence (Q7Z3E1 whole entry): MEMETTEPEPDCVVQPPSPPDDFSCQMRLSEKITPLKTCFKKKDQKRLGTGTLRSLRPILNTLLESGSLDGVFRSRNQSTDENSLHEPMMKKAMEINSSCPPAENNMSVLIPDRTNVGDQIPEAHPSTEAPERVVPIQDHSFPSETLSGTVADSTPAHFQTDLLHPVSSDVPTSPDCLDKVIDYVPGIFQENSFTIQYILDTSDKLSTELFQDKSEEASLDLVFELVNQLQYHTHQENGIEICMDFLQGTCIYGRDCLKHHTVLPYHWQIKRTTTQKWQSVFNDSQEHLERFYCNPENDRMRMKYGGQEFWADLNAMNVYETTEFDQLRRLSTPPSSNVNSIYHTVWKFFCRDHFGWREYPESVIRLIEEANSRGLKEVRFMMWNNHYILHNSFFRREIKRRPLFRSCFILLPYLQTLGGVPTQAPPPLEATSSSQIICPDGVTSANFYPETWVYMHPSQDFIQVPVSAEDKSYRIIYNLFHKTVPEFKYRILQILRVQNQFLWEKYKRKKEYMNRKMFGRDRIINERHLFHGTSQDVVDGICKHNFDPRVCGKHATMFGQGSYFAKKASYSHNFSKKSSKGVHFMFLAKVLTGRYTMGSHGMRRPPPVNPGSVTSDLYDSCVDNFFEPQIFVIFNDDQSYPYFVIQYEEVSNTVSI
Put plainly: Inhibition of Compounds on PARP1/7 Enzyme Activity.
Description: as §1

Chain of Poly [ADP-ribose] polymerase 1 (P09874 whole entry): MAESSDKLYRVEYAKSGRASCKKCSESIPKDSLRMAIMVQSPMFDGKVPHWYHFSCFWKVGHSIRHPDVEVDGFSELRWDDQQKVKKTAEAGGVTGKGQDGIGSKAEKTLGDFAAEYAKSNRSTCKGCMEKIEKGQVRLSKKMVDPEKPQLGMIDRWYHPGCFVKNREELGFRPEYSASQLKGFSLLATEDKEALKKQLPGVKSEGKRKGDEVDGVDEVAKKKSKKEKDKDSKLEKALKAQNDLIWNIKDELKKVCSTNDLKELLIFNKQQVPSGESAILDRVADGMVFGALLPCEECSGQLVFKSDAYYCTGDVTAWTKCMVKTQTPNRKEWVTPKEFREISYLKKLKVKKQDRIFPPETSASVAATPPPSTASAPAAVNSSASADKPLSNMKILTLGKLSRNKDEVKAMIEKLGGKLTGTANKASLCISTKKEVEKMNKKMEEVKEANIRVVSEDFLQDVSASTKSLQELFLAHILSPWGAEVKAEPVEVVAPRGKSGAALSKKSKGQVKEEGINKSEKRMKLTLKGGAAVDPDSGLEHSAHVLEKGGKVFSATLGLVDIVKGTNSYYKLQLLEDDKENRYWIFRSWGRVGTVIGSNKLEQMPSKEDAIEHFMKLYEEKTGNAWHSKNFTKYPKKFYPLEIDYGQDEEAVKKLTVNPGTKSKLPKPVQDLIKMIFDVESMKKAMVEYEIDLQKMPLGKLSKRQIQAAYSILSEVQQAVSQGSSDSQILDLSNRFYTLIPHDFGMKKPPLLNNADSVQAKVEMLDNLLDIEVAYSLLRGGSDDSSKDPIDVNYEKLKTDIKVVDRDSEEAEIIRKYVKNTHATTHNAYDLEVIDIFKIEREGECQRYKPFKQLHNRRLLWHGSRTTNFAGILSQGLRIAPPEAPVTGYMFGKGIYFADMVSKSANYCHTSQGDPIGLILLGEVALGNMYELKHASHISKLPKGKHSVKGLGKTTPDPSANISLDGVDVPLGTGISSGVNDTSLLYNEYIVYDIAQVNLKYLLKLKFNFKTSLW

For `O=C(CC[C@@H]1CCCN1c1cc(C(F)(F)F)c(=O)[nH]n1)N1CCN(c2ncc(C(F)(F)F)cn2)CC1`, the values for the IC50 in experiment [1] and in experiment [2] were 1.3 nM and 2.9 nM, respectively.
On to `O=C(COC[C@@H]1CCCN1c1cc(C(F)(F)F)c(=O)[nH]n1)N1CCN(c2ncc(C(F)(F)F)cn2)CC1` [US20240294509, Compound 1], for which the IC50 was determined as 293 nM in experiment [1] and 4 nM in experiment [2].
For `O=C(CC[C@@H]1C[C@H](Oc2ccccc2)CN1c1cc(C(F)(F)F)c(=O)[nH]n1)N1CCN(c2ncc(C(F)(F)F)cn2)CC1` [US20240294509, Compound 19] the same measures were 2020 nM and 4.4 nM.
Consider `O=C(CC[C@@H]1C[C@@H](F)CN1c1cc(C(F)(F)F)c(=O)[nH]n1)N1CCN(c2ncc(C(F)(F)F)cn2)CC1` [US20240294509, Compound 20], for which the IC50 in experiment [1] was 49 nM; in experiment [2] it was 3.2 nM.
For `O=C(CC[C@@H]1C[C@@H](Oc2cccc(Cl)c2)CN1c1cc(C(F)(F)F)c(=O)[nH]n1)N1CCN(c2ncc(C(F)(F)F)cn2)CC1` [US20240294509, Compound 49] the same measures were 79 nM and 26 nM.
Take `O=C(CC[C@@H]1C[C@@H](Oc2ccc(F)cc2F)CN1c1cc(C(F)(F)F)c(=O)[nH]n1)N1CCN(c2ncc(C(F)(F)F)cn2)CC1` [US20240294509, Compound 50]: the IC50 is 15 nM in experiment [1] and 13 nM in experiment [2].
Regarding `O=C(CC[C@@H]1C[C@H](Oc2cc(F)cc(F)c2)CN1c1cc(C(F)(F)F)c(=O)[nH]n1)N1CCN(c2ncc(C(F)(F)F)cn2)CC1` [US20240294509, Compound 55], the results for the IC50 in experiment [1] and in experiment [2] were 15600 nM and 82 nM, respectively.
On to `O=C(CC[C@@H]1C[C@H](Oc2ccc(F)c(F)c2)CN1c1cc(C(F)(F)F)c(=O)[nH]n1)N1CCN(c2ncc(C(F)(F)F)cn2)CC1` [US20240294509, Compound 58], for which the results for the IC50 in experiment [1] and in experiment [2] were 3190 nM and 54 nM, respectively.
Regarding `O=C(CC[C@@H]1C[C@@H](Oc2cncnc2)CN1c1cc(C(F)(F)F)c(=O)[nH]n1)N1CCN(c2ncc(C(F)(F)F)cn2)CC1` [US20240294509, Compound 63], the half-maximal inhibitory concentration (IC50) stood at 179 nM in experiment [1] and 3 nM in experiment [2].
